Data from ChEMBL document CHEMBL1132842, “Novel antifungals based on 4-substituted imidazole: solid-phase synthesis of substituted aryl sulfonamides towards optimization of in vitro activity” (Bioorg Med Chem Lett, 2000).
In brackets after ≈: the same amount, converted by molar mass. One block for each molecule: values may come before it.

Tests used:
mold = test: Concentration required to inhibit growth of pathogenic molds; type: functional
Saccharomyces cerevisiae [1] = test: Concentration required to inhibit 65% growth of selected sets of Yeasts; type: functional
Trichophyton benhamiae = test: Minimum concentration required to inhibit the growth of Trichophyton mentagrophytes; type: functional, Arthroderma benhamiae
Trichophyton rubrum = test: Minimum concentration required to inhibit the growth of Trichophyton rubrum; type: functional
Cryptococcus neoformans = test: Minimum concentration required to inhibit the growth of Cryptococcus neoformans; type: functional
Candida albicans [2] = test: Minimum concentration required to inhibit the growth of Candida albicans 1; type: functional
Microsporum canis = test: Minimum concentration required to inhibit the growth of […] canis; type: functional
Candida tropicalis = test: Minimum concentration required to inhibit the growth of Candida tropicalis; type: functional
Candida parapsilosis = test: Minimum concentration required to inhibit the growth of Candida parapsilosis; type: functional; conditions: Lodderomyces parapsilosis
Pichia kudriavzevii = test: Minimum concentration required to inhibit the growth of Candida krusei; type: functional
Aspergillus fumigatus = test: Minimum concentration required to inhibit the growth of Aspergillus fumigatus; type: functional
Kluyveromyces marxianus = test: Minimum concentration required to inhibit the growth of Candida kefyr; type: functional
Sporothrix schenckii = test: Minimum concentration required to inhibit the growth of Sporothrix schenck ii; type: functional
Nakaseomyces glabratus = test: Minimum concentration required to inhibit the growth of Candida glabrata; type: functional
Candida albicans [3] = test: Minimum concentration required to inhibit the growth of Candida albicans 2; type: functional
Candida albicans [4] = test: Minimum concentration required to inhibit the growth of Candida albicans 4; type: functional
Saccharomyces cerevisiae [5] = test: Concentration required to inhibit 65% growth of Yeast strains; type: functional

Compound: CC(C)C(C(C)C)N(Cc1c[nH]cn1)S(=O)(=O)c1ccc(-c2ccc(Cl)cc2)cc1
- pLADM (mold): 5.4
- pLADY (Saccharomyces cerevisiae [1]): 6.4

Compound: Cc1ccc(N2CCN(c3ccc(S(=O)(=O)N(Cc4c[nH]cn4)CC4CCCCC4)cc3)CC2)cc1
- pLADM (mold): 4
- pLADY (Saccharomyces cerevisiae [1]): 6.3

Compound: C[C@@H](c1ncncc1F)[C@](O)(Cn1cncn1)c1ccc(F)cc1F [VORICONAZOLE]
- MIC (Trichophyton benhamiae): ≤ 0.1 µM
- MIC (Trichophyton rubrum): ≤ 0.1 µM
- MIC (Cryptococcus neoformans): 1 µM (≈ 0.349 µg/mL)
- MIC (Candida albicans [2]): > 10 µM
- MIC (Microsporum canis): 1 µM (≈ 0.349 µg/mL)
- MIC (Candida tropicalis): 1 µM (≈ 0.349 µg/mL)
- MIC (Candida parapsilosis): ≤ 0.1 µM
- MIC (Pichia kudriavzevii): 10 µM (≈ 3.49 µg/mL)
- MIC (Aspergillus fumigatus): 1 µM (≈ 0.349 µg/mL)
- MIC (Kluyveromyces marxianus): ≤ 0.1 µM
- MIC (Sporothrix schenckii): > 10 µM
- MIC (Nakaseomyces glabratus): 10 µM (≈ 3.49 µg/mL)
- MIC (Candida albicans [3]): ≤ 0.1 µM

Compound: CCCCCCN(Cc1c[nH]cn1)S(=O)(=O)c1ccc(-c2ccc(F)cc2)cc1
- pLADM (mold): 4.8
- pLADY (Saccharomyces cerevisiae [1]): 5.9

Compound: O=S(=O)(c1ccc(-c2ccsc2)cc1)N(Cc1c[nH]cn1)CC1CCCCC1
- pLADM (mold): 4.4
- pLADY (Saccharomyces cerevisiae [1]): 6.1

Compound: O=S(=O)(c1ccc(N2CCN(c3ccccc3Cl)CC2)cc1)N(CCc1ccccc1F)Cc1c[nH]cn1
- pLADM (mold): 4.2
- pLADY (Saccharomyces cerevisiae [1]): 6

Compound: CN(c1ccc(S(=O)(=O)N(Cc2c[nH]cn2)CC2CCCCC2)cc1)C1CCCCC1
- pLADM (mold): 4
- pLADY (Saccharomyces cerevisiae [1]): 5.5

- MIC (Trichophyton benhamiae): 10 µM (≈ 4.34 µg/mL)
- MIC (Trichophyton rubrum): 1 µM (≈ 0.434 µg/mL)
- MIC (Cryptococcus neoformans): 1 µM (≈ 0.434 µg/mL)
- MIC (Candida albicans [2]): > 10 µM
- MIC (Microsporum canis): 1 µM (≈ 0.434 µg/mL)
- MIC (Candida tropicalis): 1 µM (≈ 0.434 µg/mL)
- MIC (Candida albicans [4]): ≤ 0.1 µM
- MIC (Candida parapsilosis): ≤ 0.1 µM
- MIC (Pichia kudriavzevii): 1 µM (≈ 0.434 µg/mL)
- MIC (Aspergillus fumigatus): > 10 µM
- MIC (Kluyveromyces marxianus): ≤ 0.1 µM
- MIC (Sporothrix schenckii): > 10 µM
- MIC (Nakaseomyces glabratus): 1 µM (≈ 0.434 µg/mL)
- MIC (Candida albicans [3]): ≤ 0.1 µM
Compound: CCCCOc1ccc(S(=O)(=O)N(Cc2c[nH]cn2)C(CC)C2CCCCC2)cc1 (stereo not given)

- MIC (Trichophyton benhamiae): > 10 µM
- MIC (Trichophyton rubrum): 10 µM (≈ 5.12 µg/mL)
- MIC (Cryptococcus neoformans): 1 µM (≈ 0.512 µg/mL)
- MIC (Candida albicans [2]): > 10 µM
- MIC (Microsporum canis): 10 µM (≈ 5.12 µg/mL)
- MIC (Candida tropicalis): ≤ 0.1 µM
- MIC (Candida albicans [4]): ≤ 0.1 µM
- MIC (Candida parapsilosis): ≤ 0.1 µM
- MIC (Pichia kudriavzevii): 10 µM (≈ 5.12 µg/mL)
- MIC (Aspergillus fumigatus): > 10 µM
- MIC (Kluyveromyces marxianus): ≤ 0.1 µM
- MIC (Sporothrix schenckii): > 10 µM
- MIC (Nakaseomyces glabratus): 10 µM (≈ 5.12 µg/mL)
- MIC (Candida albicans [3]): ≤ 0.1 µM
Compound: O=S(=O)(c1ccc(N2CCN(c3ccc(F)cc3)CC2)cc1)N(Cc1c[nH]cn1)CC1CCCCC1
- pLADY (Saccharomyces cerevisiae [5]): 6.9
- pLADM (mold): 4

Compound: CC(C)C(C(C)C)N(Cc1c[nH]cn1)S(=O)(=O)c1ccc(N2CCN(c3ccc(F)cc3)CC2)cc1
- pLADM (mold): 4
- pLADY (Saccharomyces cerevisiae [1]): 6.4

Compound: O=S(=O)(c1ccc(N2CCN(c3ccc(Cl)c(Cl)c3)CC2)cc1)N(CCc1ccccc1F)Cc1c[nH]cn1
- pLADM (mold): 4
- pLADY (Saccharomyces cerevisiae [1]): 5.8

Compound: COc1ccc(-c2ccc(S(=O)(=O)N(Cc3c[nH]cn3)CC3CCCCC3)cc2)cc1
- pLADM (mold): 4.4
- pLADY (Saccharomyces cerevisiae [1]): 6.3

Compound: CC(C)C(C(C)C)N(Cc1c[nH]cn1)S(=O)(=O)c1ccc(-c2ccccc2)cc1
- pLADM (mold): 5.2
- pLADY (Saccharomyces cerevisiae [1]): 6.6

Compound: O=S(=O)(c1ccc(COc2ccc(F)cc2)cc1)N(Cc1c[nH]cn1)CC1CCCCC1
- pLADM (mold): 4.4
- pLADY (Saccharomyces cerevisiae [1]): 6.1

Compound: CC(=O)Nc1cccc(-c2ccc(S(=O)(=O)N(Cc3c[nH]cn3)CC3CCCCC3)cc2)c1
- pLADM (mold): 4
- pLADY (Saccharomyces cerevisiae [1]): 4.1

- MIC (Trichophyton benhamiae): 0.1 µM (≈ 0.0706 µg/mL)
- MIC (Trichophyton rubrum): ≤ 0.1 µM
- MIC (Cryptococcus neoformans): ≤ 0.1 µM
- MIC (Candida albicans [2]): > 10 µM
- MIC (Microsporum canis): ≤ 0.1 µM
- MIC (Candida tropicalis): 0.1 µM (≈ 0.0706 µg/mL)
- MIC (Candida albicans [4]): > 10 µM
- MIC (Candida parapsilosis): ≤ 0.1 µM
- MIC (Pichia kudriavzevii): 1 µM (≈ 0.706 µg/mL)
- MIC (Aspergillus fumigatus): 1 µM (≈ 0.706 µg/mL)
- MIC (Kluyveromyces marxianus): ≤ 0.1 µM
- MIC (Sporothrix schenckii): 10 µM (≈ 7.06 µg/mL)
- MIC (Nakaseomyces glabratus): 1 µM (≈ 0.706 µg/mL)
- MIC (Candida albicans [3]): ≤ 0.1 µM
Compound: CCC(C)n1ncn(-c2ccc(N3CCN(c4ccc(OCC5COC(Cn6cncn6)(c6ccc(Cl)cc6Cl)O5)cc4)CC3)cc2)c1=O (stereo not given) [ITRACONAZOLE]

Compound: O=S(=O)(c1ccc(N2CCCCC2)cc1)N(CCc1ccccc1F)Cc1c[nH]cn1
- pLADM (mold): 4.2
- pLADY (Saccharomyces cerevisiae [1]): 5.9

- MIC (Trichophyton benhamiae): 10 µM (≈ 4.3 µg/mL)
- MIC (Trichophyton rubrum): 1 µM (≈ 0.43 µg/mL)
- MIC (Cryptococcus neoformans): ≤ 0.1 µM
- MIC (Candida albicans [2]): > 10 µM
- MIC (Microsporum canis): 1 µM (≈ 0.43 µg/mL)
- MIC (Candida tropicalis): ≤ 0.1 µM
- MIC (Candida albicans [4]): 1 µM (≈ 0.43 µg/mL)
- MIC (Candida parapsilosis): ≤ 0.1 µM
- MIC (Pichia kudriavzevii): 1 µM (≈ 0.43 µg/mL)
- MIC (Aspergillus fumigatus): 10 µM (≈ 4.3 µg/mL)
- MIC (Kluyveromyces marxianus): ≤ 0.1 µM
- MIC (Sporothrix schenckii): > 10 µM
- MIC (Nakaseomyces glabratus): 1 µM (≈ 0.43 µg/mL)
- MIC (Candida albicans [3]): ≤ 0.1 µM
Compound: CC(C)C(C(C)C)N(Cc1c[nH]cn1)S(=O)(=O)c1ccc(-c2ccc(F)cc2)cc1
- pLADY (Saccharomyces cerevisiae [5]): 6.8
- pLADM (mold): 5.2

Compound: O=S(=O)(c1ccc(N2CCN(c3ccc(F)cc3)CC2)cc1)N(CCc1ccccc1F)Cc1c[nH]cn1
- pLADM (mold): 4.4
- pLADY (Saccharomyces cerevisiae [1]): 6.8

Compound: O=S(=O)(c1ccc(N2CCN(c3ccccn3)CC2)cc1)N(Cc1c[nH]cn1)CC1CCCCC1
- pLADM (mold): 4
- pLADY (Saccharomyces cerevisiae [1]): 6.4

Compound: COc1ccc(-c2ccc(S(=O)(=O)N(Cc3c[nH]cn3)C(C(C)C)C(C)C)cc2)cc1
- pLADM (mold): 5
- pLADY (Saccharomyces cerevisiae [1]): 6.4

Compound: O=S(=O)(c1ccc(CN2CCN(c3ccccn3)CC2)cc1)N(Cc1c[nH]cn1)CC1CCCCC1
- pLADM (mold): 4
- pLADY (Saccharomyces cerevisiae [1]): 6.4

Compound: O=S(=O)(c1ccc(N2CCN(c3cccc(C(F)(F)F)c3)CC2)cc1)N(Cc1c[nH]cn1)CC1CCCCC1
- pLADM (mold): 4
- pLADY (Saccharomyces cerevisiae [1]): 6.3

- MIC (Trichophyton benhamiae): > 10 µM
- MIC (Trichophyton rubrum): 10 µM (≈ 5.36 µg/mL)
- MIC (Cryptococcus neoformans): 1 µM (≈ 0.536 µg/mL)
- MIC (Candida albicans [2]): 10 µM (≈ 5.36 µg/mL)
- MIC (Microsporum canis): 10 µM (≈ 5.36 µg/mL)
- MIC (Candida tropicalis): 1 µM (≈ 0.536 µg/mL)
- MIC (Candida albicans [4]): 1 µM (≈ 0.536 µg/mL)
- MIC (Candida parapsilosis): < 0.1 µM
- MIC (Pichia kudriavzevii): 1 µM (≈ 0.536 µg/mL)
- MIC (Aspergillus fumigatus): > 10 µM
- MIC (Kluyveromyces marxianus): ≤ 0.1 µM
- MIC (Sporothrix schenckii): > 10 µM
- MIC (Nakaseomyces glabratus): 10 µM (≈ 5.36 µg/mL)
- MIC (Candida albicans [3]): ≤ 0.1 µM
Compound: O=S(=O)(c1ccc(CNCCc2ccc(Cl)cc2Cl)cc1)N(Cc1c[nH]cn1)CC1CCCCC1
- pLADY (Saccharomyces cerevisiae [5]): 6.5
- pLADM (mold): 4.4

Compound: O=S(=O)(c1ccc(CNCCc2ccc(Cl)cc2Cl)cc1)N(CCc1ccc(F)cc1)Cc1c[nH]cn1
- pLADM (mold): 4.4
- pLADY (Saccharomyces cerevisiae [1]): 6.1

Compound: O=S(=O)(c1ccc(-c2ccc(F)cc2)cc1)N(Cc1c[nH]cn1)C1CCCCC1
- pLADM (mold): 4.4
- pLADY (Saccharomyces cerevisiae [1]): 5.8

Compound: O=S(=O)(c1ccc(-c2ccc(F)cc2)cc1)N(Cc1c[nH]cn1)CC1CCCCC1
- pLADM (mold): 4.4
- pLADY (Saccharomyces cerevisiae [1]): 6.3

Compound: CCC(CC)Nc1ccc(S(=O)(=O)N(Cc2c[nH]cn2)C(C(C)C)C(C)C)cc1
- pLADM (mold): 4
- pLADY (Saccharomyces cerevisiae [1]): 6.5

- MIC (Trichophyton benhamiae): > 10 µM
- MIC (Trichophyton rubrum): 1 µM (≈ 0.432 µg/mL)
- MIC (Cryptococcus neoformans): 1 µM (≈ 0.432 µg/mL)
- MIC (Candida albicans [2]): > 10 µM
- MIC (Microsporum canis): 10 µM (≈ 4.32 µg/mL)
- MIC (Candida tropicalis): ≤ 0.1 µM
- MIC (Candida albicans [4]): 10 µM (≈ 4.32 µg/mL)
- MIC (Candida parapsilosis): 1 µM (≈ 0.432 µg/mL)
- MIC (Pichia kudriavzevii): > 10 µM
- MIC (Aspergillus fumigatus): > 10 µM
- MIC (Kluyveromyces marxianus): ≤ 0.1 µM
- MIC (Sporothrix schenckii): > 10 µM
- MIC (Nakaseomyces glabratus): 10 µM (≈ 4.32 µg/mL)
- MIC (Candida albicans [3]): ≤ 0.1 µM
Compound: CCCCOc1ccc(S(=O)(=O)N(CCc2ccc(F)cc2)Cc2c[nH]cn2)cc1

Compound: CN1CCN(c2ccc(S(=O)(=O)N(Cc3c[nH]cn3)CC3CCCCC3)cc2)CC1
- pLADM (mold): 4
- pLADY (Saccharomyces cerevisiae [1]): 4.6

Compound: O=S(=O)(c1ccc(N2CCOCC2)cc1)N(CCc1ccccc1F)Cc1c[nH]cn1
- pLADM (mold): 4
- pLADY (Saccharomyces cerevisiae [1]): 4.5

Compound: O=S(=O)(c1ccc(-c2ccc(Cl)cc2)cc1)N(Cc1c[nH]cn1)CC1CCCCC1
- pLADM (mold): 4.4
- pLADY (Saccharomyces cerevisiae [1]): 6.3

Compound: O=S(=O)(c1ccc(NCCc2ccc(Cl)cc2Cl)cc1)N(Cc1c[nH]cn1)CC1CCCCC1
- pLADM (mold): 4
- pLADY (Saccharomyces cerevisiae [1]): 5.4
